From EP0360850B1, “ANTIMICROBIAL AGENTS” (GIVAUDAN-ROURE (INTERNATIONAL) S.A., priority 1988, dated 1989) come the findings set out here.

In one experiment the test system is Pseudomonas aeruginosa. The experiment can be described thus: Preservative test in cosmetic lotion, weekly reinoculation. The format is cell-based. The method, then:
(§1) a. Cutting Oil Emulsions. […] Various aliquots of a 6% solution of the test compound in ethanol were added to cutting oil emulsions prepared by diluting Kutwell® 30 cutting oil concentrate 1 to 30 with water. These samples were inoculated with a culture of Ps. aeruginosa and incubated at 28°C on a rotary shaker. At weekly intervals, the samples were examined for microorganisms and then reinoculated and incubated. […] Cosmetic compositions. […] Serial dilutions of the compounds in dimethylformamide were added to a prepared, sterile cosmetic lotion of the following composition:
(§2) Samples of the lotion containing varying levels of the acrylonitrile derivatives were divided into two portions; one portion was inoculated with a spore suspension of A. niger, and the other portion with a 24-hour nutrient broth culture of Ps. aeruginosa. These two organisms are frequently found as contaminants in cosmetic products. The samples were incubated for a 4-week period with weekly examinations for the growth of the organisms. At weekly intervals, the samples were also reinoculated with the test organisms. Presence of fungal growth was determined macroscopically while bacterial contamination was determined by streaking one 4-mm loopful (0.01ml) of the lotion onto the surface of trypticase glucose extract agar (Baltimore Biological Laboratories, Baltimore, MD) containing 0.005% triphenyl tetrazolium chloride and letheen antidote. Results of these tests showing the minimum inhibitory concentration through the 4-week incubation period are tabulated in Table IV and show, once again, that the compounds where R is methyl or ethyl show a broad spectrum activity for the preservation of cosmetic products against the type of fungus and bacterium most likely to cause problems in cosmetics.

Another experiment deals with Aspergillus niger. Described as above. The format is cell-based. The note with it: A.n. Here is the method:
as §1, §2

Setting [1] is: read-out: Minimum Inhibitory Concentration Week 1.
Where [2] appears, read: read-out: Minimum Inhibitory Concentration Week 2.
The mark [3] stands for this setting: read-out: Minimum Inhibitory Concentration Week 3.
[4] abbreviates: read-out: Minimum Inhibitory Concentration Week 4.
[5] abbreviates: Week 1, read-out: Minimum Inhibitory Concentration Week 1.
Setting [6] is: Week 2, weekly reinoculation, read-out: Minimum Inhibitory Concentration Week 2.
Setting [7] is: Week 3, weekly reinoculation, read-out: Minimum Inhibitory Concentration Week 3.
Setting [8] is: Week 4, weekly reinoculation, read-out: Minimum Inhibitory Concentration Week 4.

≈ marks a conversion by molar mass, not a printed value. Read-outs that look alike come from different tables or passages of the source. Where only a bound is given, the exact number is not on record here.

On to `CSC=C(Br)C#N` [Example 1, α-Bromo-β-methylthio-acrylonitrile], for which the MIC with Pseudomonas aeruginosa (setting [1]), in the experiment on Pseudomonas aeruginosa (setting [2]), in the experiment with Pseudomonas aeruginosa (setting [3]), in the experiment with Pseudomonas aeruginosa (setting [4]), in the experiment on Aspergillus niger (setting [5]) and in the experiment with Aspergillus niger (setting [6]) was less than 7.8 µg/mL in each case. For the same compound, the MIC with Aspergillus niger (setting [7]) and in the experiment on Aspergillus niger (setting [8]) was less than 7.8 µg/mL in each case.

With `CSC=C(Cl)C#N` [Example 2, α-Chloro-β-methylthio-acrylonitrile], the MIC in the experiment with Pseudomonas aeruginosa (setting [1]) was 31 to 62 µg/mL (≈ 232 to 464 µM); in the experiment on Pseudomonas aeruginosa (setting [2]) it was 15 to 31 µg/mL (≈ 112 to 232 µM); in the experiment with Pseudomonas aeruginosa (setting [3]) it was 15 to 31 µg/mL (≈ 112 to 232 µM); in the experiment on Pseudomonas aeruginosa (setting [4]) it was 15 to 31 µg/mL (≈ 112 to 232 µM); with Aspergillus niger (setting [5]), less than 7.8 µg/mL; with Aspergillus niger (setting [6]), less than 7.8 µg/mL. The MIC in the experiment with Aspergillus niger (setting [7]) and with Aspergillus niger (setting [8]) was less than 7.8 µg/mL each time.

On to `CCSC=C(Cl)C#N` [Example 3, α-chloro-β-ethylthio-acrylonitrile], for which the MIC with Pseudomonas aeruginosa (setting [1]) was 250 to 500 µg/mL (≈ 1690 to 3390 µM); with Pseudomonas aeruginosa (setting [2]), 125 to 250 µg/mL (≈ 847 to 1690 µM); in the experiment with Pseudomonas aeruginosa (setting [3]) it was 125 to 250 µg/mL (≈ 847 to 1690 µM); with Pseudomonas aeruginosa (setting [4]), 125 to 250 µg/mL (≈ 847 to 1690 µM); in the experiment with Aspergillus niger (setting [5]), less than 7.8 µg/mL; in the experiment on Aspergillus niger (setting [6]) it was less than 7.8 µg/mL. For the same compound, the MIC with Aspergillus niger (setting [7]) and in the experiment on Aspergillus niger (setting [8]) was less than 7.8 µg/mL each time.

Regarding `CCSC=C(Br)C#N` [Example 4, α-bromo-β-ethylthio-acrylonitrile], the MIC in the experiment with Pseudomonas aeruginosa (setting [1]) is 31 to 62 µg/mL (≈ 161 to 323 µM); in the experiment on Pseudomonas aeruginosa (setting [2]), 31 to 62 µg/mL (≈ 161 to 323 µM); with Pseudomonas aeruginosa (setting [3]) it was 31 to 62 µg/mL (≈ 161 to 323 µM); in the experiment with Pseudomonas aeruginosa (setting [4]) it was 31 to 62 µg/mL (≈ 161 to 323 µM); in the experiment on Aspergillus niger (setting [5]), less than 7.8 µg/mL; in the experiment on Aspergillus niger (setting [6]), less than 7.8 µg/mL. Further, the MIC in the experiment with Aspergillus niger (setting [7]) and with Aspergillus niger (setting [8]) was less than 7.8 µg/mL throughout.

In the case of `CCCSC=C(Cl)C#N` [Example 5], the MIC with Pseudomonas aeruginosa (setting [1]) was more than 2000 µg/mL; in the experiment with Pseudomonas aeruginosa (setting [2]), 1000 to 2000 µg/mL (≈ 6190 to 12400 µM); in the experiment with Pseudomonas aeruginosa (setting [3]), 1000 to 2000 µg/mL (≈ 6190 to 12400 µM); in the experiment on Pseudomonas aeruginosa (setting [4]), 500 to 1000 µg/mL (≈ 3090 to 6190 µM); in the experiment with Aspergillus niger (setting [5]) it was 125 to 250 µg/mL (≈ 773 to 1550 µM); with Aspergillus niger (setting [6]), 125 to 250 µg/mL (≈ 773 to 1550 µM). Besides, the MIC with Aspergillus niger (setting [7]) and with Aspergillus niger (setting [8]) was 125 to 250 µg/mL (≈ 773 to 1550 µM) each time.

As for `CCCCSC=C(Cl)C#N` [Example 6], the MIC in the experiment on Pseudomonas aeruginosa (cosmetic lotion, P.a., Week 1, read-out: Minimum Inhibitory Concentration Week 1) was more than 2000 µg/mL.
